System: patients suffering from facial neuralgia
Test: Earlier treatments of the same patients (not relieved by)
Format: in vivo, human
[1] = Patient 3, post-zooster facial neuralgia

SMILES: CN(C)CCC=C1c2ccccc2CCc2ccccc21 [amitriptyline]
- relief of pain by earlier treatment (Patient 2, facial neuralgia): No relieved
- relief of pain by earlier treatment [1]: No relieved

SMILES: CNCC[C@H](Oc1cccc2ccccc12)c1cccs1 [duloxetine]
- relief of pain by earlier treatment (Patient 2, facial neuralgia): No relieved

SMILES: NCC1(CC(=O)O)CCCCC1 [gabapentin]
- relief of pain by earlier treatment (Patient 2, facial neuralgia): No relieved

SMILES: CNC1(c2ccccc2Cl)CCCCC1=O (stereo not drawn) [ketamine]
- relief of pain by earlier treatment (Patient 1, trigeminal neuralgia): No relieved

SMILES: CCC(=O)C(CC(C)N(C)C)(c1ccccc1)c1ccccc1 (stereo not drawn) [methadone]
- relief of pain by earlier treatment (Patient 2, facial neuralgia): No relieved

SMILES: CC(C)C[C@H](CN)CC(=O)O [pregabalin]
- relief of pain by earlier treatment (Patient 2, facial neuralgia): No relieved
- relief of pain by earlier treatment [1]: No relieved

SMILES: COc1cccc(C2(O)CCCCC2CN(C)C)c1 (stereo not drawn) [tramadol]
- relief of pain by earlier treatment [1]: No relieved

Source: patent US20230058954A1, “APREPITANT FOR USE IN THE TOPICAL TREATMENT OF FACIAL NEURALGIA” (ASSISTANCE PUBLIQUE - HOPITAUX DE PARIS, priority 2020, published 2023)
